# Assay results taken from ChEMBL document CHEMBL1201862, “PubChem BioAssay data set” (2004).
# The source made the active and inactive calls.
# How the values were obtained:
# BJ [1] = test: cytotoxicity toward BJ-TERT fibroblasts, dose response, cell-based, RAS-independent, luminescence (AID 1933); format: functional; settings: Homo sapiens
# BJ [2] = test: cytotoxicity toward BJ-TERT-LT-ST fibroblasts, dose response, cell-based, RAS-independent, luminescence (AID 1935); format: functional; settings: Homo sapiens;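 note: BJ fibroblasts immortalized with TERT plus LT and ST oncogenes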
# BJ [3] = test: cells; format: functional, cell-based; settings: Homo sapiens
# [4] = cytotoxicity toward DRD oncogenic fibroblasts, dose response, cell-based, non-viral oncogenic, luminescence (AID 1934); format: functional; settings: Homo sapiens
# [5] = molecular target: Voltage-dependent T-type calcium channel subunit alpha-1H (Homo sapiens, UniProt O95180); format: functional;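 note: channel activity triggered by adding a high calcium stimulation buffer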
# Sequence of Voltage-dependent T-type calcium channel subunit alpha-1H (O95180 whole entry): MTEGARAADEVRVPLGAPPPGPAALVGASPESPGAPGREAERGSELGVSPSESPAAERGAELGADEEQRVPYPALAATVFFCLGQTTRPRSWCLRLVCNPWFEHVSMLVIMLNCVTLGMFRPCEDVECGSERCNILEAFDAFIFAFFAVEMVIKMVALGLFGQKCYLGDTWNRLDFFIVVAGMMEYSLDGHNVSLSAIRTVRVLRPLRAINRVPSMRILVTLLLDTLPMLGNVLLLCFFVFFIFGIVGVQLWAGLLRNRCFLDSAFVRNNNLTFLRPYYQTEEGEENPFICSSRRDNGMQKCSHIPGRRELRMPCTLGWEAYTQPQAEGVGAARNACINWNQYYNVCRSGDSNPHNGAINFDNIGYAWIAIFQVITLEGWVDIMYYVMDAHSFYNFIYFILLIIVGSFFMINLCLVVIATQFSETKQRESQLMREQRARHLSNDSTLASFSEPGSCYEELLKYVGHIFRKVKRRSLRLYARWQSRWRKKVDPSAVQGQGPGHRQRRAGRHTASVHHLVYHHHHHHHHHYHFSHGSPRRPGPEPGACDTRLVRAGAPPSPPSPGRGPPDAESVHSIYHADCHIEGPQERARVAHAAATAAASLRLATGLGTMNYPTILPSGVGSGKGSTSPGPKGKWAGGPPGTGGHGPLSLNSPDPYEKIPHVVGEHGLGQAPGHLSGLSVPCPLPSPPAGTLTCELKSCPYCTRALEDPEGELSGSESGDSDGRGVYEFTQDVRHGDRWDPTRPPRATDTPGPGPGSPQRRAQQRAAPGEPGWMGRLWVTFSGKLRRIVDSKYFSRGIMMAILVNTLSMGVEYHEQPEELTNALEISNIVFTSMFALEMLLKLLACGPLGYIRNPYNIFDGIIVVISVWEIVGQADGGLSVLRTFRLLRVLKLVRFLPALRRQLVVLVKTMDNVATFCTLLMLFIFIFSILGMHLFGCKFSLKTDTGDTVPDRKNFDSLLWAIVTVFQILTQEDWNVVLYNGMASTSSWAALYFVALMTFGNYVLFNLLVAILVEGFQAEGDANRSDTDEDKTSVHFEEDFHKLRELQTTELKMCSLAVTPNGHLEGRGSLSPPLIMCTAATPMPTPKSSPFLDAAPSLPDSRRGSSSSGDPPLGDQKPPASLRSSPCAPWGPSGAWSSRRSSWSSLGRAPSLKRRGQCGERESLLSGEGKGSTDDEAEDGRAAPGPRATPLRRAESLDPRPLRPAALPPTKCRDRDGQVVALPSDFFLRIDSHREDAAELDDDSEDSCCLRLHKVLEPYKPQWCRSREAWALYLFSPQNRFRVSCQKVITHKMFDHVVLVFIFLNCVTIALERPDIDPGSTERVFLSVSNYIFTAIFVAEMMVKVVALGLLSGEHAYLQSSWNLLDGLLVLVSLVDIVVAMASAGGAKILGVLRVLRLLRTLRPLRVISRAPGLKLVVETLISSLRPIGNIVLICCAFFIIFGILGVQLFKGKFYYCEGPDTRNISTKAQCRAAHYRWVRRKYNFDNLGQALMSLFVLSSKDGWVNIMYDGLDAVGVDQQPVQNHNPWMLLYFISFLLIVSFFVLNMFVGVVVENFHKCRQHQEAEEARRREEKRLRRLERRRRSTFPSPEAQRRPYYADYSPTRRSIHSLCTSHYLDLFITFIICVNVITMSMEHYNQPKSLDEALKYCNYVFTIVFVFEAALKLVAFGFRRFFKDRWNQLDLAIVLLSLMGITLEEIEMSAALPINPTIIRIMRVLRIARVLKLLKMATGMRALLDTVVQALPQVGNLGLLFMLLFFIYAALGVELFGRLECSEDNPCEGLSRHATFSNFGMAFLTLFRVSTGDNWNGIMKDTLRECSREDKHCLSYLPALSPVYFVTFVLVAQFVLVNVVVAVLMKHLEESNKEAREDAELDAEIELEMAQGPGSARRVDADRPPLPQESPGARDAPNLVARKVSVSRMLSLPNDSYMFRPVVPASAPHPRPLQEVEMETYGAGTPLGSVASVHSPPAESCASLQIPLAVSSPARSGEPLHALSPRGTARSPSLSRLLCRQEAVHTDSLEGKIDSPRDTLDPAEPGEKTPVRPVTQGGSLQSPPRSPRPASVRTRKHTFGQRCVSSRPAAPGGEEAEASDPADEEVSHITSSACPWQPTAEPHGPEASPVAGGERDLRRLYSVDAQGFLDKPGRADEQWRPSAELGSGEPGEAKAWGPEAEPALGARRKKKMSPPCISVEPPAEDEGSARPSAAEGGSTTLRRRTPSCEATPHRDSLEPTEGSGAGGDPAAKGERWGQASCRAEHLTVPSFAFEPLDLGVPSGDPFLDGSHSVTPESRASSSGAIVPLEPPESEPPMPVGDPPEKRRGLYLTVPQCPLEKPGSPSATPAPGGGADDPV
# Large T antigen = Large T antigen (Simian virus 40, UniProt P03070); format: functional, Betapolyomavirus macacae;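 note: Confirmatory-stage PubChem screen for compounds that inhibit SV40 T antigen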
# Sequence of Large T antigen (P03070 whole entry): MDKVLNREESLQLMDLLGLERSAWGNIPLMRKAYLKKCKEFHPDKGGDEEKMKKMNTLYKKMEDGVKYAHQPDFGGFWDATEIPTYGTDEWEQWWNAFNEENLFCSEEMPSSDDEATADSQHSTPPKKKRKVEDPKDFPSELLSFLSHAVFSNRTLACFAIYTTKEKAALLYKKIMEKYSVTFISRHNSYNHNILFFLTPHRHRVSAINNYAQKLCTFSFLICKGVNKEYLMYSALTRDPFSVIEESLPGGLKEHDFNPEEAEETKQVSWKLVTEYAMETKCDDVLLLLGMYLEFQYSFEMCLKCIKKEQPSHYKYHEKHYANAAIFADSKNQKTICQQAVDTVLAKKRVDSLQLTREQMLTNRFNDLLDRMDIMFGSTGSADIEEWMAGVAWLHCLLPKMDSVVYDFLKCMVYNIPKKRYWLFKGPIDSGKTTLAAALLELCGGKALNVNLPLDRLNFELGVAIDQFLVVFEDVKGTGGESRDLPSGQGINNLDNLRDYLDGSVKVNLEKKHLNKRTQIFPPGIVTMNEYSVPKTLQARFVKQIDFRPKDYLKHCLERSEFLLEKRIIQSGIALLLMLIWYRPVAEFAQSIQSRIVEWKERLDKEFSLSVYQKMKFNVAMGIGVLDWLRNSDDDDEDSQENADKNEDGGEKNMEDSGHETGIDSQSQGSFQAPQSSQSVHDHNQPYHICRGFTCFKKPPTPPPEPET
# Genome polyprotein = Genome polyprotein (dengue virus type 2, UniProt P29990); test: Dengue-2 NS5 methyltransferase inhibitors, primary screen, biochemical, confirmation dose response (AID 588689); format: functional
# Sequence of Genome polyprotein (P29990 2492-3391 limits assumed): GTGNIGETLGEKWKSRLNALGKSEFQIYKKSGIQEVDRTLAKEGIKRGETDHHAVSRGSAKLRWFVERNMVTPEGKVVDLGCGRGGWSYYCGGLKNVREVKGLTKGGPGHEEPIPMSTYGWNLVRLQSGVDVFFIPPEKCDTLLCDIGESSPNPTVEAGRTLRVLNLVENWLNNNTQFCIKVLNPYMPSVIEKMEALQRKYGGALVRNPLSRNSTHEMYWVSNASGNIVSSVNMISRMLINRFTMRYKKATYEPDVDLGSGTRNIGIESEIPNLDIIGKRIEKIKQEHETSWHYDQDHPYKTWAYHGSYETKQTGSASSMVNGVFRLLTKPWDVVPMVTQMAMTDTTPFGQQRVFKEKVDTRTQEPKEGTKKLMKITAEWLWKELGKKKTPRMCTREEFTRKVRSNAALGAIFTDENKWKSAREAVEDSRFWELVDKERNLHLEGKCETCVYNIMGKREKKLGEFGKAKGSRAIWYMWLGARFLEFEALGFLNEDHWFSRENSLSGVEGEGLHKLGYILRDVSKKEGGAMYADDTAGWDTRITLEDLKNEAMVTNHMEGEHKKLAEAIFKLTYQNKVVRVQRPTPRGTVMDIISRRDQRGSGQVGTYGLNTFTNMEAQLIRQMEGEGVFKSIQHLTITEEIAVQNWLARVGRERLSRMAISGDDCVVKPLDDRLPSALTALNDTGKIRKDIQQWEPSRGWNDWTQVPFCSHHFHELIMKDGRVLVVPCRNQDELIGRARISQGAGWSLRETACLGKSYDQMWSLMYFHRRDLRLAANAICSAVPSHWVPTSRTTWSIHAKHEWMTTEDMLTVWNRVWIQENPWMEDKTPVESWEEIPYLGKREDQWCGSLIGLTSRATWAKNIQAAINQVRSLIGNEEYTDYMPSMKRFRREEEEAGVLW
# Leucine aminopeptidase = molecular target: T1, Leucine aminopeptidase (Plasmodium falciparum 3D7, UniProt Q8IL11); test: P. falciparum M17LAP inhibitors, primary screen, biochemical, fluorogenic H-Leu-NHMec substrate, 1536-well (AID 1619); format: functional
# T1 sequence (Q8IL11 whole entry): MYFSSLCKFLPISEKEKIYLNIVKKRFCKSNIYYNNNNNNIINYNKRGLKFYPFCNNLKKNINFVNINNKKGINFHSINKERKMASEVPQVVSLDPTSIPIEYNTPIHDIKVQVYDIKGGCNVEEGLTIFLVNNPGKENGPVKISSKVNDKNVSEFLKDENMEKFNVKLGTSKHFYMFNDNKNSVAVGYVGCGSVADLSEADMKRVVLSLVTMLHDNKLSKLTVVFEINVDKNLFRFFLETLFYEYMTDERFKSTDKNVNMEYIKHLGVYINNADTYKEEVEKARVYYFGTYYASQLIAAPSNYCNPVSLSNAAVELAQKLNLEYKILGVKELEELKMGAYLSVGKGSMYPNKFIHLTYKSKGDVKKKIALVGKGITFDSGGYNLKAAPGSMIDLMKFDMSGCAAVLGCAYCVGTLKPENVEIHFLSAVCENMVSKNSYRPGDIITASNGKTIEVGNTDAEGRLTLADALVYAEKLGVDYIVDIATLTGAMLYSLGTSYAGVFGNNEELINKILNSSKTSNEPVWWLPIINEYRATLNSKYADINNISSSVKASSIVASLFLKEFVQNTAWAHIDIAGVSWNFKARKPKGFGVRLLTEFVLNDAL
# Estrogen receptor = molecular target: T2, Estrogen receptor (Homo sapiens, UniProt P03372);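 note: potency for inhibiting coactivator peptide recruitment to the receptor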
# T2 sequence (P03372 whole entry): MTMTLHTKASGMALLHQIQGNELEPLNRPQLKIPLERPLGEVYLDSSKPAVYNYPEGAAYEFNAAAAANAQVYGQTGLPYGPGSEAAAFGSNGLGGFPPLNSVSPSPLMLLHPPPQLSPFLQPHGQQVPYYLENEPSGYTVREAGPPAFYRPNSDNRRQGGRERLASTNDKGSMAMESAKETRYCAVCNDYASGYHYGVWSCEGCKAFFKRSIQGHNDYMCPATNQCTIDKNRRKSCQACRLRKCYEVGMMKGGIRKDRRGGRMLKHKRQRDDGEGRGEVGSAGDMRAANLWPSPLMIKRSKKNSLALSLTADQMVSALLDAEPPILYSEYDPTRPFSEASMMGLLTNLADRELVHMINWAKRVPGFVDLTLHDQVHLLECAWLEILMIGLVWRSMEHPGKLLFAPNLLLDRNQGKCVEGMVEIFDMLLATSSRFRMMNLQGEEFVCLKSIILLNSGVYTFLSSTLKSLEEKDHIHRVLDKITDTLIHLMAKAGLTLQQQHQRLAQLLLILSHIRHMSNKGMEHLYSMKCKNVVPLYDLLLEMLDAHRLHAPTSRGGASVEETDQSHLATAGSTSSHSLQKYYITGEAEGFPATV
# [6] = molecular target: T3, Corticotropin-releasing factor receptor 2/Corticotropin-releasing factor-binding protein (Homo sapiens, UniProt P24387+Q13324); test: activators of CRF receptor 2 with binding protein – uHTS hits, confirmation (AID 602473); format: functional; settings: read-out: EC50_Mean
# T3 sequence (Q13324 whole entry): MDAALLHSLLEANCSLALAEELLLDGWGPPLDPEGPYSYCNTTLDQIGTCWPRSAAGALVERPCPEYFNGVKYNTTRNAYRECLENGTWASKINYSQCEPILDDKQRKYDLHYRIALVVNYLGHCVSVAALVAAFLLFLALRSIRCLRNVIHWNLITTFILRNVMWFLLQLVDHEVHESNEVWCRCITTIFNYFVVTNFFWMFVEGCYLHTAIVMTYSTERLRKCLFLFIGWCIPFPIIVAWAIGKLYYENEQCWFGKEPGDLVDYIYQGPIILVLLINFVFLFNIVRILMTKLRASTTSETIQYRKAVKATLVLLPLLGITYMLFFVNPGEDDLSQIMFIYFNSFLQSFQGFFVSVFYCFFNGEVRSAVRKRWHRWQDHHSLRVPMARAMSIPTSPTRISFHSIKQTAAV
# T3 sequence (P24387 whole entry): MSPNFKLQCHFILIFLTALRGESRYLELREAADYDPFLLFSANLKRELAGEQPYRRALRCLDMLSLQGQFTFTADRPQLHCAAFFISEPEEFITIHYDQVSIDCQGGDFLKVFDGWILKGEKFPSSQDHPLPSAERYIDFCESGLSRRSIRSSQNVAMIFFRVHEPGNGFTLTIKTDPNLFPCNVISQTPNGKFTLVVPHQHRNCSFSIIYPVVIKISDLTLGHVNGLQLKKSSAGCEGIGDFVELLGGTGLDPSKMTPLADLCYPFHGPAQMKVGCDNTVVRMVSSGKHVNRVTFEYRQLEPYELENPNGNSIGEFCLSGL
# [7] = molecular target: T4, Endoribonuclease toxin MazF (Escherichia coli K-12, UniProt P0AE70); test: fluorescent RNA oligo signal without MazF, dose response, counter-screen for MazEF activator project, biochemical, fluorescence, single-stranded RNase substrate (AID 588502); format: functional
# T4 sequence (P0AE70 whole entry): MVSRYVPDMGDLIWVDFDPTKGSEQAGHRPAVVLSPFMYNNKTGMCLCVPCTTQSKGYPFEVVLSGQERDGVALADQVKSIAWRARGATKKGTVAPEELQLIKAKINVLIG
# [8] = molecular target: T4, Endoribonuclease toxin MazF; test: MazF toxin RNase activators, dose response, biochemical, fluorescence, single-stranded RNA substrate, uHTS hits (AID 588481); format: functional
# cells [9] = format: functional, cell-based
# cells [10] = format: functional, cell-based; remark: listed apart in the source
# INS1 = test: beta cell apoptosis inhibitors, cytokine rescue, dose response, luminescence, retest (AID 449756); format: functional, cell-based; settings: Rattus norvegicus;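 note: cell death triggered by IL-1 beta plus TNF-alpha plus IFN-gamma mixture; protective hits raise ATP signal compared with cytokine alone wells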
# cells [11] = test: cells
# [12] = inhibitors of intracellular T. cruzi replication, confirmation, NIH3T3 host cells, beta-gal luminescence (AID 2044); format: functional, cell-based;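 note: intracellular parasites grown in NIH/3T3 mouse fibroblasts as host cells; luminescent beta-galactosidase reporter signal from transgenic T. cruzi replicating inside host cells; inhibitors lower the luminescence signal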
# [13] = cytotoxicity toward NIH3T3 fibroblasts, dose response, counter-screen, cell-based, ATP luminescence, mouse fibroblasts (AID 2010); format: functional;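 note: cells exposed to compound for about 90 hours before reading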
# [14] = molecular target: T5, Microphthalmia-associated transcription factor (Homo sapiens, UniProt O75030); test: TRPM1 promoter luciferase signal decrease, dose response, MITF inhibitor project, cell-based, SK-MEL-5, cherry-picked, set 3 (AID 493073); format: functional
# T5 sequence (O75030 whole entry): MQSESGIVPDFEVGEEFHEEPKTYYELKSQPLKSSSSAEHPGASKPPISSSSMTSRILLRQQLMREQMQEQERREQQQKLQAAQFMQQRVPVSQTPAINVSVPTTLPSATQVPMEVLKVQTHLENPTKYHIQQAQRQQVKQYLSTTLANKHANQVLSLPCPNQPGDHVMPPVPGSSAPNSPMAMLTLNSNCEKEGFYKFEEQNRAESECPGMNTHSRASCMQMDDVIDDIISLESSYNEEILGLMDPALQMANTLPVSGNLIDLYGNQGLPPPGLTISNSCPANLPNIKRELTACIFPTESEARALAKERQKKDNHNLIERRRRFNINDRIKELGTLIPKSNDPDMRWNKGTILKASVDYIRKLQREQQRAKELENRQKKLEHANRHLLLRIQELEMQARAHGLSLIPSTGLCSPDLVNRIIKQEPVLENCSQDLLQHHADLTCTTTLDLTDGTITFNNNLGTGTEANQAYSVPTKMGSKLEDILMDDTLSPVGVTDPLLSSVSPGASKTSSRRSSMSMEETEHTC
# HEK293 [15] = test: cells; format: functional, cell-based; settings: Homo sapiens
# HEK293 [16] = test: cells; format: functional, cell-based; settings: Homo sapiens; remark: listed apart in the source
# HEK293 [17] = test: NOD2 signaling inhibitors in MDP-stimulated cells, cell-based, uHTS, luminescence (AID 2001); format: functional; settings: Homo sapiens
# Cytochrome P450 1A2 = molecular target: T6, Cytochrome P450 1A2 (Homo sapiens, UniProt P05177);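 note: PubChem cytochrome P450 panel assay, CYP1A2 panel member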
# T6 sequence (P05177 whole entry): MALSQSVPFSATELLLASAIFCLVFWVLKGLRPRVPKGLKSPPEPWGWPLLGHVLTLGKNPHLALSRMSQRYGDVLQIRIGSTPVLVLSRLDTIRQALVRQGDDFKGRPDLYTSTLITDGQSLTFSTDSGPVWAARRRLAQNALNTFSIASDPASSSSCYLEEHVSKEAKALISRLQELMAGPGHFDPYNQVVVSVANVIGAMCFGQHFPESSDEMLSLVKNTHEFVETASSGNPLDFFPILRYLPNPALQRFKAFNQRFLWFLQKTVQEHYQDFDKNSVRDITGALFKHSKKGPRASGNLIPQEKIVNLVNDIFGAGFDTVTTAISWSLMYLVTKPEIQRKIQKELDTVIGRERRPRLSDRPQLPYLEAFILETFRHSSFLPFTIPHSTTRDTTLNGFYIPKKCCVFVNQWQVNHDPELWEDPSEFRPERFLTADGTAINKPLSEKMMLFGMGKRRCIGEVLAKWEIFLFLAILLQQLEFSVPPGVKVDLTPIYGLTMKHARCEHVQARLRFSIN
structure (smiles),measurement,setting,value
CCCCN1C(=O)/C(=C/C=C/C=C/Nc2ccccc2)SC1=S,EC50,BJ [1],31.6 µM (active)
same,EC50,BJ [2],> 150 µM (not active)
same,EC50,BJ [3],24.6 µM (active)
same,EC50,[4],19.8 µM (active)
O=C(CSCC(=O)N1CCCCC1)Nc1nc(-c2cccs2)cs1,EC50,[5],0.595 µM (active)
Cc1cc(C)n2nc(C(=O)N/N=C/c3ccc(O)cc3)nc2n1,IC50,Large T antigen,43.9 µM (active)
NC(=O)COc1ccc(/C=C2\C(=O)ON=C2c2ccccc2)cc1,IC50,Genome polyprotein,67.7 µM (active)
N#Cc1c(O)nc(S)nc1-c1ccccc1,IC50,Leucine aminopeptidase,15.7 µM (active)
Cc1ccccc1-c1nc(CS(=O)(=O)CC(=O)N(C)C2CCCCC2)c(C)o1,EC50,[5],1.26 µM (active)
O=C(Nc1ccc2nn(-c3ccccc3)nc2c1)c1ccc2c(c1)OCO2,IC50,Estrogen receptor,6.3 µM (active)
Nc1c(C(=O)Nc2nccs2)sc2nc(-c3cccs3)cc(C(F)(F)F)c12,EC50,[6],2.76 µM (active)
same,EC50,[7],> 99 µM (inactive)
same,EC50,[8],> 99 µM (inactive)
Cc1ccc2c(CC(=O)NCC3COc4ccccc4O3)coc2c1 (stereo not given),EC50,[5],0.986 µM (active)
Cc1nonc1NC(=O)CSc1nnc(-c2ccoc2C)n1-c1cccc(Cl)c1,EC50,[5],7.83 µM (active)
O=C(CCC(=O)N1CCN(c2ccc(O)cc2)CC1)c1cccs1,IC50,Large T antigen,5.54 µM (active)
ON=CNc1cccc2nonc12,EC50,cells [9],> 350 µM (not active)
same,EC50,cells [10],98.8 µM (active)
Cc1ccc(-c2c[n+](Cc3ccc(Cl)cc3)c3n2CCC3)cc1,AC50,INS1,5.16 µM (active)
same,EC50,cells [11],0.027 µM (active)
same,EC50,[12],< 0.1 µM (active)
same,EC50,[13],> 30 µM (not active)
same,AC50,[14],14.2 µM (active)
CCOCC(=O)Nc1cccc(C(=O)OCC)c1,IC50,Estrogen receptor,> 50 µM (not active)
COc1ccc(CSCC(=O)Nc2ccc(S(=O)(=O)N3CCCCCC3)cc2)cc1,EC50,cells [9],> 350 µM (not active)
same,EC50,cells [10],> 350 µM (not active)
CC1=C(C)CC(C(=O)NNC(=O)c2csc3c2CCC(C(C)(C)C)C3)C(C(=O)O)C1 (stereo not given),IC50,Leucine aminopeptidase,8.98 µM (active)
COc1ccccc1N1CCN(C(=O)C2CCCN(S(=O)(=O)c3ccc4c(c3)oc(=O)n4C)C2)CC1 (stereo not given),IC50,HEK293 [15],> 20 µM (inactive)
same,IC50,HEK293 [16],> 20 µM (inactive)
same,IC50,HEK293 [17],> 20 µM (inactive)
Cc1ccc(NC2SC(=O)N(Cc3cccc(C(=O)O)c3)C2=O)cc1 (stereo not given),IC50,Leucine aminopeptidase,6.86 µM (active)
CC1CCC2(CC1)NC(=O)N(CC(=O)Nc1ccc(N3CCOCC3)cc1)C2=O (stereo not given),IC50,Leucine aminopeptidase,58.6 µM (active)
COC(=O)CSc1cc([N+](=O)[O-])cc2c1c(C1OCCO1)nn2-c1ccccc1,EC50,[7],> 99 µM (inactive)
same,EC50,[8],> 99 µM (inactive)
CN1CCN(c2ccc([N+](=O)[O-])cc2C(=O)c2ccccc2)CC1,EC50,BJ [1],39.6 µM (active)
same,EC50,BJ [2],> 150 µM (not active)
same,EC50,BJ [3],> 150 µM (not active)
same,EC50,[4],> 150 µM (not active)
O=C(O)c1nn(Cc2ccc(Cl)cc2Cl)c2ccccc12 [LONIDAMINE],AC50,Cytochrome P450 1A2,39.8 µM (inconclusive)
same,IC50,Leucine aminopeptidase,7.37 µM (active)
O=C(COc1ccccc1)N(Cc1cccc(F)c1)C1CCS(=O)(=O)C1 (stereo not given),EC50,cells [9],> 350 µM (not active)
same,EC50,cells [10],> 350 µM (not active)
COc1ccc(Br)c(C(=O)OCc2cc(=O)oc3cc(C)ccc23)c1,EC50,[7],> 99 µM (inactive)
same,EC50,[8],> 99 µM (inactive)
O=C(/C=C/c1ccc2c(c1)OCO2)Nc1cccnc1,EC50,cells [9],> 350 µM (not active)
same,EC50,cells [10],6.64 µM (active)
O=C(CCS(=O)(=O)c1ccc(Br)cc1)N1CCN(c2ccccc2Cl)CC1,EC50,[5],4.8 µM (active)
CCCn1/c(=N/C(=O)c2c(-c3c(F)cccc3Cl)noc2C)c(C(=O)OCC)cc2c(=O)n3ccccc3nc21,EC50,cells [9],> 350 µM (not active)
same,EC50,cells [10],> 350 µM (not active)
CN(C)c1ccc(NC(=O)CSc2nnc(-c3ccco3)c(-c3ccco3)n2)cc1,IC50,Large T antigen,6.98 µM (active)
